Laboratory results: patent publication US20250041380A1, “R[…] FOR SARS-COV2 DISEASE” (priority 2021, published 2025)
Where two headings read alike, the source gives them in different places.

Columns and labels:
in vitro [1] = type: cell-based, Human; details: human, 1 μM
Method: (§1) A549 cells were plated in DMEM+10% FBS at a density of 10,000 cells/well in 96-well culture plates and incubated at 37° C. for 24 h. THP-1 cells were plated in RPMI+10% FBS at a density of 10,000 cells/well in 96-well culture plates and incubated at 37° C. for 24 h. Cells were sera-starved for 24 h. […] Untreated cells were used as control. Cells treated with dexamethasone and hydroxychloroquine were included as positive control. After treatment, cells were incubated in a 5% CO2 incubator for 48 h.

Immune (THP-1) cells = experiment: in vitro; type: cell-based, Human; details: 48 h
Method: as §1

in vitro [2] = type: cell-based, Human; details: human, 1 μM; remark: listed apart in the source
Method: as §1

Lung (A549) cells = experiment: in vitro; type: cell-based, Human; details: 48 h
Method: as §1

Bladder cells (T24) = experiment: tissue or blood; type: cell-based; details: Spike S1 Protein (5 μg/ml)
Cardiac cells (H9C2) = experiment: cells; type: cell-based; details: Spike S1 Protein (5 μg/ml); for inhibition at 0.1 µM / inhibition at 1 µM / inhibition at 10 µM / inhibition at 20 µM: Rattus norvegicus, H9c2
Colon cells (HT-29) = experiment: cells; type: cell-based; details: Spike S1 Protein (1 μg/ml); for inhibition at 0.1 µM / inhibition at 1 µM / inhibition at 10 µM / inhibition at 20 µM: Homo sapiens, HT-29
[3] = system: Endothelial cells (EA.hy926); experiment: cells; type: cell-based; details: Spike S1 Protein (1 μg/ml); for inhibition at 0.1 µM / inhibition at 1 µM / inhibition at 10 µM / inhibition at 20 µM: Homo sapiens, EA.hy 926
Kidney cells (HEK-293) = experiment: cells; type: cell-based; details: Spike S1 Protein (100 ng/ml); for inhibition at 0.1 µM / inhibition at 1 µM / inhibition at 10 µM / inhibition at 20 µM: Homo sapiens, HEK293
Bone cells (MG-63) = experiment: cells; type: cell-based; details: Spike S1 Protein (10 μg/ml); for inhibition at 0.1 µM / inhibition at 1 µM / inhibition at 10 µM / inhibition at 20 µM: Homo sapiens, MG-63
liver cells (HepG2) = experiment: cells; type: cell-based; details: Spike S1 Protein (20 μg/ml)
[4] = system: pancreatic cells (PANC-1); experiment: cells; type: cell-based; details: Spike S1 Protein (20 μg/ml)+
[5] = 0.1 μM, read-out: % Inhibition (IL-6)
[6] = 0.1 μM, read-out: % Inhibition (IL-8)
[7] = 1 μM, read-out: % Inhibition (IL-6)
[8] = 1 μM, read-out: % Inhibition (IL-8)
[9] = 10 μM, read-out: % Inhibition (IL-6)
[10] = 10 μM, read-out: % Inhibition (IL-8)
[11] = 20 μM, read-out: % Inhibition (IL-6)
[12] = 20 μM, read-out: % Inhibition (IL-8)
[13] = 0.1 μM, read-out: % Inhibition (wrt Control), IL-6
[14] = 0.1 μM, read-out: % Inhibition (wrt Control), IL-8
[15] = 1 μM, read-out: % Inhibition (wrt Control), IL-6
[16] = 1 μM, read-out: % Inhibition (wrt Control), IL-8
[17] = 10 μM, read-out: % Inhibition (wrt Control), IL-6
[18] = 10 μM, read-out: % Inhibition (wrt Control), IL-8
[19] = 20 μM, read-out: % Inhibition (wrt Control), IL-6
[20] = 20 μM, read-out: % Inhibition (wrt Control), IL-8

CCN(CCO)CCCC(C)Nc1ccnc2cc(Cl)ccc12 (stereo not shown) [Hydroxychloroquine sulphate]
cytotoxicity at 48 h, 1 µM (in vitro [1]): -5.2%
% Viability (Immune (THP-1) cells; 0.1 μM): 113.4%
% Viability (Immune (THP-1) cells; 1 μM): 105.2%
% Viability (Immune (THP-1) cells; 5 μM): 95.8%
% Viability (Immune (THP-1) cells; 10 μM): 104.8%
% Viability (Immune (THP-1) cells; 20 μM): 89.3%
cytotoxicity at 48 h, 1 µM (in vitro [2]): -5.2%
% Viability (Lung (A549) cells; 0.1 μM): 79.0%
% Viability (Lung (A549) cells; 1 μM): 105.2%
% Viability (Lung (A549) cells; 5 μM): 101.0%
% Viability (Lung (A549) cells; 10 μM): 110.9%
% Viability (Lung (A549) cells; 20 μM): 72.4%
Con. of IL-8 (Bladder cells (T24); 0.1 μM): 2661.3
Conc. of IL-6 (Bladder cells (T24); 0.1 μM): 432.0
inhibition at 0.1 µM (Bladder cells (T24); [5]): 25.2%
inhibition at 0.1 µM (Bladder cells (T24); [6]): 37.7%
Con. of IL-8 (Bladder cells (T24); 1 μM): 2527.7
Conc. of IL-6 (Bladder cells (T24); 1 μM): 410.8
inhibition at 1 µM (Bladder cells (T24); [7]): 28.9%
inhibition at 1 µM (Bladder cells (T24); [8]): 40.9%
Con. of IL-8 (Bladder cells (T24); 10 μM): 2679.5
Conc. of IL-6 (Bladder cells (T24); 10 μM): 430.2
inhibition at 10 µM (Bladder cells (T24); [9]): 25.5%
inhibition at 10 µM (Bladder cells (T24); [10]): 37.3%
Con. of IL-8 (Bladder cells (T24); 20 μM): 2470.0
Conc. of IL-6 (Bladder cells (T24); 20 μM): 415.8
inhibition at 20 µM (Bladder cells (T24); [11]): 28%
inhibition at 20 µM (Bladder cells (T24); [12]): 42.2%
Con. of IL-8 (Cardiac cells (H9C2); 0.1 μM): 952.1
Conc. of IL-6 (Cardiac cells (H9C2); 0.1 μM): 420.1
Con. of IL-8 (Cardiac cells (H9C2); 1 μM): 768.5
Conc. of IL-6 (Cardiac cells (H9C2); 1 μM): 313.4
Con. of IL-8 (Cardiac cells (H9C2); 10 μM): 231.8
Conc. of IL-6 (Cardiac cells (H9C2); 10 μM): 125.2
Con. of IL-8 (Cardiac cells (H9C2); 20 μM): 45.5
Conc. of IL-6 (Cardiac cells (H9C2); 20 μM): 61.8
inhibition at 0.1 µM (Cardiac cells (H9C2); [5]): 16.9%
inhibition at 0.1 µM (Cardiac cells (H9C2); [6]): 33.5%
inhibition at 1 µM (Cardiac cells (H9C2); [7]): 38%
inhibition at 1 µM (Cardiac cells (H9C2); [8]): 46.3%
inhibition at 10 µM (Cardiac cells (H9C2); [9]): 75.2%
inhibition at 10 µM (Cardiac cells (H9C2); [10]): 83.8%
inhibition at 20 µM (Cardiac cells (H9C2); [11]): 87.8%
inhibition at 20 µM (Cardiac cells (H9C2); [12]): 96.8%
Con. of IL-8 (Colon cells (HT-29); 0.1 μM): 49.1 pg/mL
Conc. of IL-6 (Colon cells (HT-29); 0.1 μM): 114.8 pg/mL
Con. of IL-8 (Colon cells (HT-29); 1 μM): 92.3 pg/mL
Conc. of IL-6 (Colon cells (HT-29); 1 μM): 91.1 pg/mL
Con. of IL-8 (Colon cells (HT-29); 10 μM): 99.5 pg/mL
Conc. of IL-6 (Colon cells (HT-29); 10 μM): 125.2 pg/mL
Con. of IL-8 (Colon cells (HT-29); 20 μM): 37.6 pg/mL
Conc. of IL-6 (Colon cells (HT-29); 20 μM): 104.2 pg/mL
inhibition at 0.1 µM (Colon cells (HT-29); [13]): 51.3%
inhibition at 0.1 µM (Colon cells (HT-29); [14]): 92.7%
inhibition at 1 µM (Colon cells (HT-29); [15]): 61.4%
inhibition at 1 µM (Colon cells (HT-29); [16]): 86.2%
inhibition at 10 µM (Colon cells (HT-29); [17]): 46.9%
inhibition at 10 µM (Colon cells (HT-29); [18]): 85.2%
inhibition at 20 µM (Colon cells (HT-29); [19]): 55.8%
inhibition at 20 µM (Colon cells (HT-29); [20]): 94.4%
Con. of IL-8 ([3]; 0.1 μM): 826.7 pg/mL
Conc. of IL-6 ([3]; 0.1 μM): 145.1 pg/mL
Con. of IL-8 ([3]; 1 μM): 1026.6 pg/mL
Conc. of IL-6 ([3]; 1 μM): 200.3 pg/mL
Con. of IL-8 ([3]; 10 μM): 1756.7 pg/mL
Conc. of IL-6 ([3]; 10 μM): 64.0 pg/mL
Con. of IL-8 ([3]; 20 μM): 1573.3 pg/mL
Conc. of IL-6 ([3]; 20 μM): 58.9 pg/mL
inhibition at 0.1 µM ([3]; 0.1 μM, read-out: % Inhibition (wrt, IL-6)): 56.9%
inhibition at 0.1 µM ([3]; 0.1 μM, read-out: % Inhibition (wrt, IL-8)): 48.8%
inhibition at 1 µM ([3]; 1 μM, read-out: % Inhibition (wrt, IL-6)): 40.5%
inhibition at 1 µM ([3]; 1 μM, read-out: % Inhibition (wrt, IL-8)): 36.5%
inhibition at 10 µM ([3]; 10 μM, read-out: % Inhibition (wrt, IL-6)): 81%
inhibition at 10 µM ([3]; 10 μM, read-out: % Inhibition (wrt, IL-8)): 0%
inhibition at 20 µM ([3]; 20 μM, read-out: % Inhibition (wrt, IL-6)): 82.5%
inhibition at 20 µM ([3]; 20 μM, read-out: % Inhibition (wrt, IL-8)): 2.6%
Con. of IL-8 (Kidney cells (HEK-293); 0.1 μM): 651.8 pg/mL
Conc. of IL-6 (Kidney cells (HEK-293); 0.1 μM): 94.2 pg/mL
Con. of IL-8 (Kidney cells (HEK-293); 1 μM): 678.2 pg/mL
Conc. of IL-6 (Kidney cells (HEK-293); 1 μM): 97.4 pg/mL
Con. of IL-8 (Kidney cells (HEK-293); 10 μM): 959.1 pg/mL
Conc. of IL-6 (Kidney cells (HEK-293); 10 μM): 137.7 pg/mL
Con. of IL-8 (Kidney cells (HEK-293); 20 μM): 1809.1 pg/mL
Conc. of IL-6 (Kidney cells (HEK-293); 20 μM): 260.0 pg/mL
inhibition at 0.1 µM (Kidney cells (HEK-293); [13]): 63.8%
inhibition at 0.1 µM (Kidney cells (HEK-293); [14]): 66%
inhibition at 1 µM (Kidney cells (HEK-293); [15]): 62.6%
inhibition at 1 µM (Kidney cells (HEK-293); [16]): 64.6%
inhibition at 10 µM (Kidney cells (HEK-293); [17]): 47.1%
inhibition at 10 µM (Kidney cells (HEK-293); [18]): 49.9%
inhibition at 20 µM (Kidney cells (HEK-293); [19]): 0%
inhibition at 20 µM (Kidney cells (HEK-293); [20]): 5.5%
Con. of IL-8 (Bone cells (MG-63); 0.1 μM): 703.3 pg/mL
Conc. of IL-6 (Bone cells (MG-63); 0.1 μM): 136.5 pg/mL
Con. of IL-8 (Bone cells (MG-63); 1 μM): 660.0 pg/mL
Conc. of IL-6 (Bone cells (MG-63); 1 μM): 171.8 pg/mL
Con. of IL-8 (Bone cells (MG-63); 10 μM): 774.4 pg/mL
Conc. of IL-6 (Bone cells (MG-63); 10 μM): 233.8 pg/mL
Con. of IL-8 (Bone cells (MG-63); 20 μM): 1388.3 pg/mL
Conc. of IL-6 (Bone cells (MG-63); 20 μM): 354.0 pg/mL
inhibition at 0.1 µM (Bone cells (MG-63); [13]): 14.7%
inhibition at 0.1 µM (Bone cells (MG-63); [14]): 0.6%
inhibition at 1 µM (Bone cells (MG-63); [15]): -7.4%
inhibition at 1 µM (Bone cells (MG-63); [16]): 6.8%
inhibition at 10 µM (Bone cells (MG-63); [17]): -46.1%
inhibition at 10 µM (Bone cells (MG-63); [18]): -9.4%
inhibition at 20 µM (Bone cells (MG-63); [19]): -121%
inhibition at 20 µM (Bone cells (MG-63); [20]): -96.2%
Conc. of IL-8 (liver cells (HepG2); 0.1 μM): 117.1 pg/mL
Conc. of IL-8 (liver cells (HepG2); 1 μM): 193.2 pg/mL
Conc. of IL-8 (liver cells (HepG2); 10 μM): 162.5 pg/mL
Conc. of IL-8 (liver cells (HepG2); 20 μM): 103.6 pg/mL
inhibition at 0.1 µM (liver cells (HepG2); Homo sapiens, HepG2, 0.1 μM, read-out: % Inhibition (wrt Control ), IL-8): 76.5%
inhibition at 1 µM (liver cells (HepG2); Homo sapiens, HepG2, 1 μM, read-out: % Inhibition (wrt Control ), IL-8): 61.3%
inhibition at 10 µM (liver cells (HepG2); Homo sapiens, HepG2, 10 μM, read-out: % Inhibition (wrt Control ), IL-8): 67.4%
inhibition at 20 µM (liver cells (HepG2); Homo sapiens, HepG2, 20 μM, read-out: % Inhibition (wrt Control ), IL-8): 79.2%
Conc. of IL-8 ([4]; 0.1 μM): 214 pg/mL
Conc. of IL-8 ([4]; 1 μM): 169.9 pg/mL
Conc. of IL-8 ([4]; 10 μM): 200.5 pg/mL
Conc. of IL-8 ([4]; 20 μM): 203 pg/mL
inhibition at 0.1 µM ([4]; Homo sapiens, PANC-1, 0.1 μM, read-out: % Inhibition (wrt Control ), IL-8): 71.3%
inhibition at 1 µM ([4]; Homo sapiens, PANC-1, 1 μM, read-out: % Inhibition (wrt Control ), IL-8): 77.2%
inhibition at 10 µM ([4]; Homo sapiens, PANC-1, 10 μM, read-out: % Inhibition (wrt Control ), IL-8): 73.1%
inhibition at 20 µM ([4]; Homo sapiens, PANC-1, 20 μM, read-out: % Inhibition (wrt Control ), IL-8): 72.8%
